This note sets out measurements from patent US20110195911A1, “SYNTHETIC ANALOGS OF THE JUXTAMEMBRANE DOMAIN OF IGF1R AND USES THEREOF” (THE UNITED STATES OF AMERICA,AS REPRESENTED BY THE …, priority 2008, published 2011).

The test relates to MCF-7 breast cancer cells. The test is described as follows: MTT cell toxicity assay in MCF-7 breast cancer cells. The test is classed as cell-based. The conditions noted are these: for TGI / growth inhibition / potency in MCF-7 cells (in words) / GI50: MCF-7 cells, MTT; for TGI / GI50: final 0.5% FBS, two days with compound; for TGI: concentration of total growth inhibition (cytostatic); for growth inhibition / potency in MCF-7 cells (in words): comparison with related peptides. The method, then:
Cell Toxicity Assays: MCF-7 (breast cancer), T47D (breast cancer), Colo 205 (colon cancer), JM-1 (rat hepatoma), Sk Me1-2 (melanoma), PLC (human hepatoma), and HepG2 (human hepatoma) cells were obtained from American Type Cell Culture Collection. MCF-7 cells were grown in RPMI medium supplemented with 10% Fetal Bovine Serum. The rest of the cell lines were grown in DMEM medium supplemented with 10% Fetal Bovine Serum.
MTT 43-(4,5-Dimethylthiazol-2-yl)-2,5-diphenyltetrazolium) cell assay was performed using MCF-7 breast cancer cells. For the assay, cells were seeded into 96 well plates in medium containing 1% Fetal Bovine Serum and 100 μL of a cell suspension containing 5000 cells per well. Wells containing medium-only, and wells containing untreated cells, served as controls.
Seeded cells were allowed to attach and grow in the wells for 24 hours. A 5 mM stock solution of each peptide was made by dissolving approximately 1 mg of peptide in appropriate amount of DMSO. 2 mL dilutions were used to make 0.2 μM, 1.0 μM, 5.0 μM, and 10.0 μM concentration solutions of the compounds in serum-free medium. 100 μl, of the resulting 2× solutions were added to the corresponding wells to provide a final FBS concentration of 0.5% and 0.1 μM, 0.5 μM, 2.5 μM, and 5.0 μM dilutions of inhibitors. The cells were incubated with test compounds for two days. The control wells were given 100 μL of medium to ensure maximum similarity to the test wells so that all of the wells had 200 μL of medium during the growth period. An individual plate was made for Time Zero, to which the dye was added at the time of addition of compounds.
An alternative potency assay was used to test compounds in MCF-7 (breast cancer), T47D (breast cancer), Colo 205 (colon cancer), JM-1 (rat hepatoma), Sk MeI-2 (melanoma), PLC (human hepatoma), and HepG2 (human hepatoma) cells. Cells were suspended at a concentration of approximately 5000 cells per 100 μL of suspension in a 5% FBS RPMI medium. The cells were seeded into 96-count wells and incubated over night. After one day's incubation, the 5% FBS medium was aspirated and replaced with 100 μL of no serum RPMI medium containing 1 mg Bovine Serum Albumin (BSA) per 1 mL RPMI. Various concentrations of the test compounds were prepared by dilution in no-serum medium containing 1 mg BSA/mL. 75 μL of the test compound solutions were added to the wells, and the cells were allowed to incubate for 15-20 minutes, after which time 25 μL of human recombinant IGF-1 (Peprotech) solution was added to the wells to attain final concentrations of 10 ng IGF-1/mL medium. The control wells were given 175 μL of no-serum medium in addition to 25 μL of IGF-1 solution. An individual plate was made for time zero, in which the medium was also aspirated and replaced with 175 μL of no-serum medium and 25 μL of IGF-1. 15 μL of MTT dye was added and let incubate for 4 hours, after which time a stop stop solubilization solution was added. The stop solution lysed the cells and released the dye reduced by the remaining living cells. Absorbance of the wells at 544 nm was determined by a FLUOstar/POLARstar Galaxy (BMG Lab Technologies GmbH) microplate reader. The activity was calculated from the data using the formula: 100×[(T−T0)/(C−T0)] for T>T0 and 100×[(T−T0)/T0] for T<T0, wherein T0 corresponds to cell density at the time of drug addition, “T” is the optical density of the test well after a 48-h period of exposure to test drug, and “C” is the control optical density. The GI50 measures the growth inhibitory power of the test agent, and is defined as the concentration of test drug where 100×(T−T0)/(C−T0)=50. The TGI is the concentration of test drug where 100×(T−T0)/(C−T0)=0. Thus, the TGI signifies a cytostatic effect.

SMILES strings stand for the structures. Where a SMILES comes first, the peptide text is derived from it. [ ]: non-standard residue; d: D form. The star is where a group is joined. Palmitoyl = CCCCCCCCCCCCCCCC(=O)* Bounds are passed on as bounds.

`CCCCCCCCCCCCCCCC(=O)N[C@@H](C(=O)N[C@H](CO)C(=O)N[C@H](C)C(=O)N[C@H](Cc1ccc(O)cc1)C(=O)N[C@H](CC(C)C)C(=O)N[C@@H](C(=O)NCC(=O)N[C@H](CC(N)=O)C(=O)NCC(=O)N[C@H](CC(C)C)C(=O)N[C@H](CCCNC(=N)N)C(=O)N[C@H](CO)C(=O)N[C@H](CC(N)=O)C(=O)N[C@H](CC(N)=O)C(=O)N[C@H](CCCNC(=N)N)C(N)=O)C(C)C)C(C)C` [Peptide 21, Pal-VSAYLVGNGLRSNNR-NH2] (Palmitoyl-[dV][dS][dA][dY][dL][dV]G[dN]G[dL][dR][dS][dN][dN][dR]-NH2): the TGI is 100 ± 5 nM and the “growth inhibition / potency in MCF-7 cells (in words)” value (“growth inhibition / potency” for short) was “did not improve or diminish the inhibitory activity”.
With `CCCCCCCCCCCCCCCC(=O)N[C@@H](Cc1c[nH]cn1)C(=O)N[C@@H](CCCNC(=N)N)C(=O)N[C@@H](CCCCN)C(=O)N[C@@H](CCCNC(=N)N)C(=O)N[C@@H](CC(N)=O)C(=O)N[C@@H](CC(N)=O)C(=O)N[C@@H](CO)C(=O)N[C@@H](CCCNC(=N)N)C(=O)N[C@@H](CC(C)C)C(=O)NCC(=O)N[C@@H](CC(N)=O)C(=O)NCC(=O)N[C@H](C(=O)N[C@@H](CC(C)C)C(=O)N[C@@H](Cc1ccc(O)cc1)C(=O)N[C@@H](C)C(=O)N[C@@H](CO)C(=O)N[C@H](C(=O)N[C@@H](CC(N)=O)C(=O)N1CCC[C@H]1C(=O)N[C@@H](CCC(=O)O)C(=O)N[C@@H](Cc1ccc(O)cc1)C(=O)N[C@@H](Cc1ccccc1)C(=O)N[C@@H](CO)C(=O)N[C@@H](C)C(=O)N[C@@H](C)C(N)=O)C(C)C)C(C)C` [Peptide 4] (Palmitoyl-HRKRNNSRLGNGVLYASVNPEYFSAA-NH2), the GI50 stood at 1000 ± 50 nM and the TGI is more than 5000 nM.
On the same counts, the results for `CCCCCCCCCCCCCCCC(=O)N[C@@H](CCCNC(=N)N)C(=O)N[C@@H](CC(N)=O)C(=O)N[C@@H](CC(N)=O)C(=O)N[C@@H](CO)C(=O)N[C@@H](CCCNC(=N)N)C(=O)N[C@@H](CC(C)C)C(=O)NCC(=O)N[C@@H](CC(N)=O)C(=O)NCC(=O)N[C@H](C(=O)N[C@@H](CC(C)C)C(=O)N[C@@H](Cc1ccccc1)C(N)=O)C(C)C` [Peptide 29, Pal-RNNSRLGNGVLF-NH2] (Palmitoyl-RNNSRLGNGVLF-NH2) are 100 ± 5 nM and 1200 ± 50 nM.
Regarding `CCCCCCCCCCCCCCCC(=O)N[C@@H](CCCNC(=N)N)C(=O)N[C@@H](CC(N)=O)C(=O)N[C@@H](CC(N)=O)C(=O)N[C@@H](CO)C(=O)N[C@@H](CCCNC(=N)N)C(=O)N[C@@H](CC(C)C)C(=O)NCC(=O)N[C@@H](CC(N)=O)C(=O)NCC(=O)N[C@H](C(=O)N[C@@H](CC(C)C)C(N)=O)C(C)C` [Peptide 30, Pal-RNNSRLGNGVL-NH2] (Palmitoyl-RNNSRLGNGVL-NH2), the concentration for 50% growth inhibition (GI50) worked out at 1700 ± 50 nM and the TGI worked out at 3700 ± 50 nM.
`CCCCCCCCCCCCCCCC(=O)N[C@@H](CCCNC(=N)N)C(=O)N[C@@H](CC(N)=O)C(=O)N[C@@H](CC(N)=O)C(=O)N[C@@H](CO)C(=O)N[C@@H](CCCNC(=N)N)C(=O)N[C@@H](CC(C)C)C(=O)NCC(=O)N[C@@H](CC(N)=O)C(=O)NCC(=O)N[C@H](C(=O)N[C@@H](CC(C)C)C(=O)N[C@@H](Cc1ccc(O)cc1)C(=O)N[C@@H](C)C(=O)N[C@@H](CO)C(=O)N[C@H](C(=O)N[C@@H](CC(N)=O)C(N)=O)C(C)C)C(C)C` [Peptide 14, Pal-RNNSRLGNGVLYASVN-NH2] (Palmitoyl-RNNSRLGNGVLYASVN-NH2): the GI50 turned out to be 100 ± 4 nM and the concentration for total growth inhibition (TGI) amounted to 400 ± 20 nM. Also, the improvement of potency result (MCF-7, N-terminal truncation, relative to peptide 12/3) was “more than ten-fold”.
With `CCCCCCCCCCCCCCCC(=O)N[C@@H](CCCNC(=N)N)C(=O)N[C@@H](CCCCN)C(=O)N[C@@H](CCCNC(=N)N)C(=O)N[C@@H](CC(N)=O)C(=O)N[C@@H](CC(N)=O)C(=O)N[C@@H](CO)C(=O)N[C@@H](CCCNC(=N)N)C(=O)N[C@@H](CC(C)C)C(=O)NCC(=O)N[C@@H](CC(N)=O)C(=O)NCC(=O)N[C@H](C(=O)N[C@@H](CC(C)C)C(=O)N[C@@H](Cc1ccc(O)cc1)C(=O)N[C@@H](C)C(=O)N[C@@H](CO)C(=O)N[C@H](C(=O)N[C@@H](CC(N)=O)C(N)=O)C(C)C)C(C)C` [Peptide 12, Pal-RKRNNSRLGNGVLYASVN-NH2] (Palmitoyl-RKRNNSRLGNGVLYASVN-NH2), the GI50 came to 1200 ± 100 nM, the TGI stood at 2700 ± 300 nM and the “growth inhibition / potency” value is “decreased activity slightly”.
For `CCCCCCCCCCCCCCCC(=O)N[C@@H](Cc1c[nH]cn1)C(=O)N[C@@H](CCCNC(=N)N)C(=O)N[C@@H](CCCCN)C(=O)N[C@@H](CCCNC(=N)N)C(=O)N[C@@H](CC(N)=O)C(=O)N[C@@H](CC(N)=O)C(=O)N[C@@H](CO)C(=O)N[C@@H](CCCNC(=N)N)C(=O)N[C@@H](CC(C)C)C(=O)NCC(=O)N[C@@H](CC(N)=O)C(=O)NCC(=O)N[C@H](C(=O)N[C@@H](CC(C)C)C(=O)N[C@@H](Cc1ccc(O)cc1)C(=O)N[C@@H](C)C(=O)N[C@@H](CO)C(=O)N[C@H](C(N)=O)C(C)C)C(C)C` [Peptide 5, Pal-HRKRNNSRLGNGVLYASV-NH2] (Palmitoyl-HRKRNNSRLGNGVLYASV-NH2) the same measures were 450 ± 50 nM, 1450 ± 300 nM and “increased the potency”.
On to `CCCCCCCCCCCCCCCC(=O)N[C@@H](Cc1c[nH]cn1)C(=O)N[C@@H](CCCNC(=N)N)C(=O)N[C@@H](CCCCN)C(=O)N[C@@H](CCCNC(=N)N)C(=O)N[C@@H](CC(N)=O)C(=O)N[C@@H](CC(N)=O)C(=O)N[C@@H](CO)C(=O)N[C@@H](CCCNC(=N)N)C(=O)N[C@@H](CC(C)C)C(=O)NCC(=O)N[C@@H](CC(N)=O)C(=O)NCC(=O)N[C@H](C(=O)N[C@@H](CC(C)C)C(N)=O)C(C)C` [Peptide 10, Pal-HRKRNNSRLGNGVL-NH2] (Palmitoyl-HRKRNNSRLGNGVL-NH2), for which the 50% growth inhibitory concentration (GI50) worked out at 1800 ± 100 nM and the TGI is more than 5000 nM.
For `CCCCCCCCCCCCCCCC(=O)N[C@@H](CCCNC(=N)N)C(=O)N[C@@H](CC(N)=O)C(=O)N[C@@H](CC(N)=O)C(=O)N[C@@H](CO)C(=O)N[C@@H](CCCNC(=N)N)C(=O)N[C@@H](CC(C)C)C(=O)NCC(=O)N[C@@H](CC(N)=O)C(=O)NCC(=O)N[C@H](C(=O)N[C@@H](CC(C)C)C(=O)N[C@@H](Cc1ccc(O)cc1)C(N)=O)C(C)C` [Peptide 16, Pal-RNNSRLGNGVLY-NH2] (Palmitoyl-RNNSRLGNGVLY-NH2), the GI50 turned out to be 70 ± 5 nM, the TGI worked out at 500 ± 20 nM and the “growth inhibition / potency” value is “most potent derivative”.
On the same counts, the results for `CCCCCCCCCCCCCCCC(=O)N[C@@H](CCCNC(=N)N)C(=O)N[C@@H](CC(C)C)C(=O)NCC(=O)N[C@@H](CC(N)=O)C(=O)NCC(=O)N[C@H](C(=O)N[C@@H](CC(C)C)C(=O)N[C@@H](Cc1ccc(O)cc1)C(N)=O)C(C)C` [Peptide 20, Pal-RLGNGVLY-NH2] (Palmitoyl-RLGNGVLY-NH2) are 200 ± 6 nM, more than 5000 nM and “gradual reduction in potency”.
With `CCCCCCCCCCCCCCCC(=O)N[C@@H](CC(N)=O)C(=O)N[C@@H](CO)C(=O)N[C@@H](CCCNC(=N)N)C(=O)N[C@@H](CC(C)C)C(=O)NCC(=O)N[C@@H](CC(N)=O)C(=O)NCC(=O)N[C@H](C(=O)N[C@@H](CC(C)C)C(=O)N[C@@H](Cc1ccc(O)cc1)C(N)=O)C(C)C` [Peptide 17, Pal-NSRLGNGVLY-NH2] (Palmitoyl-NSRLGNGVLY-NH2), the GI50 came out at 200 ± 10 nM, the concentration for total growth inhibition (TGI) came to 1500 ± 100 nM and the “growth inhibition / potency” value was “gradual reduction in potency”.
